Measured values reported in patent US20160015725A1, “METHODS OF CONTROLLING TUMOR BIOENERGETICS NETWORKS” (THE WISTAR INSTITUTE OF ANATOMY AND BIOLOGY, priority 2012, published 2016).

How the values were obtained:
Format in all cases: cell-based, human
tumor cells [1] = experiment: ER UPR markers (Western blotting, Xbp1 splicing, RT-qPCR); settings: for ER UPR markers (CHOP, C/EBPβ, Grp78): tumor cells, Western blotting; for effect on Gamitrinib-induced AMPK phosphorylation and ER stress/UPR markers: agent added to Gamitrinib
PC3 cells = experiment: ER stress luciferase-promoter reporter assay; settings: PC3, 20 h
Procedure: In another series of experiments, PC3 cells were transfected with control or Grp78-directed siRNA, and analyzed for cell viability after 24 h by an MTT assay. For promoter analysis, PC3 cells were plated in triplicate onto 48-well plates at 1.4×10^4 cells/well, and cotransfected with Firefly Luciferase-reporters for IRE1, ATF6, PERK or CHOP and a constitutive reporter (pTK-Renilla Luc) in a 10:1 ratio using X-tremeGENE reagent (Roche). After 24 h, cells were treated with vehicle, Gamitrinib, tunicamycin or 2-DG and analyzed after 20 h for Firefly and Renilla luciferase activity using a Dual Luciferase Reporter Assay System (Promega). Transfection of plasmid DNAs was carried out with lipofectamine 2000 (Invitrogen) according to published protocols. A PPIase-defective CypD H168Q mutant cDNA was generated by Quick-Change site-directed mutagenesis (Stratagene) using primers 5′-[…]-3′ (forward) and 5′-[…]-3′ (reverse) (mutated sequences are bolded). The inserted mutation (bolded) was confirmed by DNA sequencing, and cloned in a pcDNA3.0 expression vector (Invitrogen) for reconstitution experiments in CypD−/− MEFs.

mTORC1 = mTORC1 signaling in tumor cells, Western blotting
[2] = system: AMP-activated kinase (AMPK); experiment: AMPK phosphorylation in tumor cells, Western blotting; settings: tumor cells
LN229 cells = experiment: Cell viability by MTT
Procedure: Various cell types were seeded in triplicate onto 96-well plates at 4×10^3 cells/well, treated with vehicle, Gamitrinib or 17-AAG (0-20 μM) for 12 h, and analyzed for changes in metabolic activity by an MTT assay. For determination of apoptosis, LN229 cells ([…]) were labeled for annexin V and propidium iodide (PI) (BD Biosciences), and analyzed by multiparametric flow cytometry (BD).

WT BRAF melanoma cells = experiment: AMPK and autophagy signaling in WT BRAF melanoma cells; settings: WT BRAF melanoma cells
Excerpt: (§1) Human glioblastoma LN229, prostate adenocarcinoma PC3 or LNCaP cells, or normal NIH3T3 fibroblasts were obtained from the American Tissue Culture Collection (ATCC, Manassas, Va.), and maintained in culture according to the supplier's specifications. The following wild type (WT) BRAF N-Ras mutant melanoma cells WM852 and WM1366, and melanoma cells carrying a V600E activating mutation in the BRAF oncogene, 451Lu, Me11617 and WM983B were used in this study. WT or CypD knockout Mouse Embryonic Fibroblasts (MEFs, CypD−/−) were characterized earlier 40. In some experiments, CypD−/− MEFs were stably transfected with control plasmid, WT CypD or peptidyl prolyl isomerase (PPIase)-deficient H168Q CypD mutant cDNA, and analyzed for differential recruitment of HK-II to mitochondrial or cytosolic fractions.
(§2) For Western blotting, protein lysates were prepared from the different cell types in RIPA Buffer (150 mM NaCl, 1.0% Triton X-100, 0.5% sodium deoxycholate, 0.1% SDS, 50 mM Tris, pH 8.0) containing EDTA-free Protease Inhibitor Cocktail (Roche) and Phosphatase Inhibitor Cocktail 2 and 3 (Sigma Aldrich). Equal amounts of protein lysates were separated by SDS gel electrophoresis, transferred to PVDF membranes and incubated with primary antibodies of various specificities. Protein bands were detected by chemiluminescence.
(§3) Samples were imaged using a Leica TCS SP2 confocal microscope. For determination of autophagy, cells under the various conditions tested were harvested after 12 h, and analyzed with an antibody to […] (LC3) by Western blotting.

[3] = system: multiple tumor cell types; experiment: ATP production in tumor cells (luciferin-luciferase)
Procedure: Intracellular ATP concentrations were measured by the luciferin—luciferase method using an ATP measuring kit (Biochain). The ATP concentration in each extract was measured with a microplate luminometer (Beckman Coulter) against standard ATP solutions used as reference. In some experiments, PC3 or LN229 cells were preincubated with sodium pyruvate for 7 h in the presence of vehicle or Gamitrinib before determination of ATP production.

hexokinase = experiment: Hexokinase activity in mitochondrial fractions of treated cells; settings: LN229 mitochondrial fractions, 5 h
Procedure: HK activity in LN229 cells was measured as the total glucosephosphorylating activity using a standard G6PDH-coupled assay kit (BioVision). Mitochondria isolated from Gamitrinib- or 17-AAG-treated LN229 cells, or cultures transfected with various siRNAs were homogenized in cold PBS, followed by centrifugation at 1000 g for 10 min at 4° C. HK activity was determined by analysis of G6P-dependent conversion of NADP to NADPH in the presence of excess […] in the presence of 2 mM glucose, and quantification of absorbance at 450 nm. All assays were performed at 25° C. under conditions of linear HK-limited NADPH formation.

[4] = system: V600E mutant BRAF melanoma cells; experiment: AMPK and autophagy signaling in mutant BRAF melanoma cells
Excerpt: as §1, §2, §3

tumor cells [5] = experiment: Autophagy (LC3 conversion, LC3-CFP puncta)
Procedure: LN229 cells were transfected with various siRNAs, and mixed after 24 h with plasmid encoding cyan fluorescent protein (CFP) fused to human […] (LC3) cDNA in the presence of Lipofectamine 2000 Transfection Reagent (Invitrogen). After 48 h, transfected cells were fixed in 4% paraformaldehyde for 15 min at 37° C., washed, and examined by fluorescence microscopy (Nikon, E600). The numbers of CFP-LC3 punctate dots per cell was determined from three independent experiments. A minimum of 50 CFP-LC3-positive cells assessed from at least ten random fields per sample were counted in triplicate per each condition.
as §3

## O=CC[C@@H](O)[C@H](O)[C@H](O)CO [2-DG, 2-deoxy-D-glucose]
Tumor cells [1]
  ER UPR markers (CHOP, C/EBPβ, Grp78): concentration (FIG. 14b)- and time (FIG. 14c)-dependent upregulation of ER UPR
PC3 cells
  minimal CHOP promoter activity: transcriptionally induced
  transcriptional activation of response elements of IRE-1, ATF-6 and PERK: comparably induced transcriptional activation
mTORC1
  phosphorylation of mTOR, 4EBP1 and p70S6 (mTORC1): suppression of mTORC1 4EPB1 and p70S6 phosphorylation
[2]
  AMPK phosphorylation: AMPK activation

## Cn1cnc(N)c2ncnc1-2 [3-MA, 3-methyladenine]
LN229 cells; agent added to Gamitrinib
  tumor cell killing mediated by sub-optimal concentrations of Gamitrinib: enhanced tumor cell killing mediated by sub-optimal concentrations of Gamitrinib

## C=CCNC1=C2C[C@@H](C)C[C@H](OC)[C@H](O)[C@@H](C)/C=C(\C)[C@H](OC(N)=O)[C@@H](OC)/C=C\C=C(/C)C(=O)NC(=CC1=O)C2=O [17-AAG, 17-allylamino demethoxygeldanamycin, reference compound]
WT BRAF melanoma cells
  AMPK phosphorylation: had no effect on AMPK activation
[3]; tumor cell types, non-cytotoxic concentrations, 5 h
  ATP production: had no effect on ATP production
LN229 cells; 17-AAG plus 3-MA vs each treatment alone
  tumor cell viability, combination with 3-MA: did not decrease tumor cell viability compared to each treatment alone
mTORC1
  phosphorylation of mTOR, 4EBP1 and p70S6 (mTORC1): had no effect
[2]
  AMPK phosphorylation: not
hexokinase
  hexokinase activity: had no effect
[4]; BRAF mutant melanoma cells
  AMPK activation: had no effect on AMPK activation

## N#CC(C#N)=NNc1cccc(Cl)c1 [CCCP, carbonyl cyanide 3-chlorophenylhydrazone, reference compound]
Tumor cells [1]
  ER UPR markers (CHOP, C/EBPβ, Grp78): upregulation of CHOP, C/EBPβ, and Grp78
mTORC1
  phosphorylation of mTOR, 4EBP1 and p70S6 (mTORC1): inhibition of 4EBP1 phosphorylation
[2]
  AMPK phosphorylation: time-dependent phosphorylation of AMPK
Tumor cells [5]
  autophagy (LC3-II conversion): stimulation of LC3-II conversion

## CC(=O)N[C@@H](CS)C(=O)O [NAC, N-acetyl-L-cysteine, reference compound]
Tumor cells [1]
  effect on Gamitrinib-induced AMPK phosphorylation and ER stress/UPR markers: did not affect

## N#CC(=C(/N)Sc1ccccc1N)/C(C#N)=C(\N)Sc1ccccc1N [U0126, reference compound]
[4]; mutant BRAF melanoma cells, agent added to Gamitrinib
  AMPK phosphorylation after Gamitrinib treatment: partially restored AMPK phosphorylation

## CC(=O)C(=O)[O-].[Na+] [sodium pyruvate, reference compound]
Tumor cells [1]
  effect on Gamitrinib-induced AMPK phosphorylation and ER stress/UPR markers: did not affect
[3]; exogenous addition, PC3 or LN229, 7 h
  rescue of ATP production in Gamitrinib-treated tumor cells: failed to rescue ATP production

## tunicamycin
Tumor cells [1]; control ER stressor
  IRE-1 and CHOP expression: comparable induction of IRE-1 and CHOP expression
PC3 cells
  minimal CHOP promoter activity: transcriptionally induced
  transcriptional activation of response elements of IRE-1, ATF-6 and PERK: comparably induced transcriptional activation
